Tests used:
[1] = system: top 10 cocaine-dysregulated biological pathways in the hippocampus; test: Biological pathway analysis (IPA) of transcriptomics, cocaine-dysregulated pathways; assay type: in vivo, Male Wister rats; settings: single treatment
Protocol: (§1) Animals were then randomly allocated to one of five groups and received a single i.p. injection of one of vehicle, 5 mg/kg 5-Meo-DMT, 0.14 mg/kg LSD, 1 mg/kg psilocybin, or 1 mg/kg DOI. On day 15, animals were euthanised and the hippocampus blunt dissected, snap frozen in liquid nitrogen and stored at −80° C. until further processing.
Subsequent pathway analyses were done using Ingenuity Pathway Analysis (IPA). Analysis settings for IPA included the Ingenuity Knowledge Base (Genes Only), direct and indirect relationships, and endogenous chemicals of the previously filtered list of differentially expressed genes. IPA was filtered to only consider molecules where the species were human, rat, or mouse and the confidence can be experimentally observed. Canonical pathways were utilized in pathway analysis, where the spreadsheet organized the values of significance to −log(p-value) and the rate of regulation to the z-score. Negative z-score values indicate downregulation and positive values indicate upregulation.

hippocampal proteins = test: Hippocampal LC-MS/MS proteomics, chronic cocaine with single psychedelic administration; assay type: in vivo, Male Wister rats; settings: for differential expression of proteins in the control hippocampus: single i.p. dose (5-MeO-DMT 5 mg/kg, LSD 0.14 mg/kg, psilocybin 1 mg/kg, DOI 1 mg/kg) vs saline-saline, p<0.05, FC ±20%; for differential expression of proteins in the chronic cocaine hippocampus: single i.p. dose after 14 days cocaine 20 mg/kg (5-MeO-DMT 5, LSD 0.14, psilocybin 1, DOI 1 mg/kg) vs cocaine-saline; for reversal of chronic cocaine mediated proteomic changes in the hippocampus: single treatment (5-MeO-DMT 5, LSD 0.14, psilocybin 1, DOI 1 mg/kg i.p.)
Protocol: as §1
Protein from hippocampal tissue was processed for liquid chromatography tandem Mass Spectrometry (LC-MS/MS). Samples were run on a Thermo Scientific Q Exactive Mass Spectrometer connected to a Dionex Ultimate 3000 (RSLCnano) chromatography system in the UCD Conway Institute Core Mass Spectrometry Facility. Peptide and protein identification of MS/MS spectra were searched against the rat UniProt database using carbamidomethylation (C) as a fixed modification and acetylation (protein N terminus) and oxidation (M) as variable modifications with a false discovery rate filtering of 0.01. MaxQuant was using to generate label-free quantitative (LFQ) ion intensities and the Perseus statistical software contained in the MaxQuant package was used to analyse LFQ ion intensity. Statistical significance (p<0.05, FC±20%) of mean LFQ intensity between treatment groups was determined by two sample t-test. […] Networks were visualised using the stringApp (version 1.6.0) plugin for the Cytoscape software platform (version 3.8.2).

[2] = system: primary hippocampal neurons; test: Antagonist pre-treatment studies of neuronal structural change, Sholl analysis; assay type: cell-based, rat; settings: for neuronal structural complexity (normalised AUC): meta-analysis
Protocol: Primary hippocampal cultures were grown on 18 mm glass coverslips at a density of 1×10^6 cells as described. On 3 DIV all cells underwent a full medium change. […] On 4 DIV, all cells underwent a second full medium change. Cells in the combination group were treated with 2 μM 5-MeO-DMT for a further 24 hours with all other groups beginning a 24-hour treatment. After treatment was completed the cells were fixed and processed as described below.
Based on the findings with other psychedelic drugs that share structural and behavioral similarities to 5-MeO-DMT we selected ANA-12 (Sigma), an antagonist of TrkB, the BDNF receptor, and rapamycin (ThermoFischer) an antagonist of the mammalian target of rapamycin (mTOR). Due to the affinity and known behavioral change induced by 5-MeO-DMT at the 5-HT1AR and 5-HT2AR we assessed their contribution to structural changes mediated by 5-MeO-DMT. The receptors were antagonized with WAY-100635 maleate (Tocris) or Ketanserin (Axxora), respectively. For all antagonist studies the antagonist under investigation was added 15 mins prior to drug treatment. […] ANA-12, Ketanserin and rapamycin were dissolved in dimethyl sulfoxide (DMSO) with a final concentration of 0.01-0.04% for treatment. WAY100635 was dissolved in sterile dH2O.
After termination of drug treatment coverslips were processed and imaged as outlined for immunocytochemistry. In all instances NeuN antibody staining was used to visualize projections from the cell body. Images were analyzed using the Simple Neurite Tracer and Sholl analysis plug-ins for ImageJ Fiji. For the Sholl analysis circle radii of 2 μm increments were used. All images were taken and analyzed by an experimenter blinded to treatment conditions.
Statistical Analysis—Data are represented as mean±SEM. Statistical analyses were performed using GraphPad Prism (version 5). For analyses involving comparison of three or more groups, a one-way ANOVA with Bonferroni's post-hoc test was utilized where appropriate. No statistics were calculated for the individual points of the Sholl plots, instead, statistical analyses were performed on the aggregate data, the area under the curve (AUC) of the Sholl plot. Secondary measurements were the Nmax, the maximum number of intersections measured by the Sholl analysis, which indicated the number of projections emanating from a neuron and the average length of primary neurites originating from the cell soma.

5-HT2AR = 5-HT2AR (Homo sapiens, UniProt P28223); settings: metabolite of 5-MeO-DMT; cited from earlier work
[3] = ketanserin 100 μM treated groups relative to control

5-HT2AR, sequence (P28223 whole entry): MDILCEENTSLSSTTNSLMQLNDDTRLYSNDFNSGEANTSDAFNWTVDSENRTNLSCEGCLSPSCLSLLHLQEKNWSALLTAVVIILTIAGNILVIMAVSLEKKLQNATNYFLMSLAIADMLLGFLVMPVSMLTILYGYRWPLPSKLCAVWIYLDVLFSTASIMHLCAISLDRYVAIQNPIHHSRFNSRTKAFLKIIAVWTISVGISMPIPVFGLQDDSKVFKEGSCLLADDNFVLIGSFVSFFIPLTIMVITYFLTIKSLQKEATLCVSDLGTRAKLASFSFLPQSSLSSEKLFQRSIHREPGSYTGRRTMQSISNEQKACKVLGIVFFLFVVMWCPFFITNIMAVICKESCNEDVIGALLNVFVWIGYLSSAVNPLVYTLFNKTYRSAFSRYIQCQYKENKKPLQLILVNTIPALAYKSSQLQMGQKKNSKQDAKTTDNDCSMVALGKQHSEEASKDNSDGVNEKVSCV

## CN(C)CCc1c[nH]c2cccc(OP(=O)(O)O)c12 [psilocybin, Psilocybin]
[1]
  number of the top 10 dysregulated pathways corrected: 7 pathways
  top 10 cocaine-dysregulated biological pathways corrected: 70%
Hippocampal proteins
  differential expression of proteins in the control hippocampus: 91 proteins
  differential expression of proteins in the chronic cocaine hippocampus: 45 proteins
  reversal of chronic cocaine mediated proteomic changes in the hippocampus: 74%

## COc1ccccc1N1CCN(CCN(C(=O)C2CCCCC2)c2ccccn2)CC1.O=C(O)/C=C\C(=O)O [WAY100635, WAY-100635 maleate]
[2]; WAY100635 100 nM pre-treatment before 5-MeO-DMT
  average neurite length: prevented the 5-Meo-mediated increase in neurite length
[2]; WAY100635 100 nM treated groups relative to vehicle treated pairings
  maximum number of intersections (Nmax): significantly reduced
[2]; WAY100635 100 nM, 15 min pre-treatment before 5-MeO-DMT or cocaine
  normalised AUC of the Sholl plot: prevented the 5-Meo- and cocaine-induced increase in normalised AUC
[2]; WAY100635 pre-treatment
  neuronal structural complexity (normalised AUC): prevented the increase in complexity mediated by all treatments

## CN(C)CCc1c[nH]c2ccc(O)cc12 [bufotenine, 5-hydroxy,N,Ndimethyltryptamine]
5-HT2AR
  affinity for the 5-HT2AR relative to the parent compound: much higher affinity for the 5-HT2AR than the parent compound

## O=C(c1ccc(F)cc1)C1CCN(CCn2c(=O)[nH]c3ccccc3c2=O)CC1 [Ketanserin]
[2]; [3]
  average neurite length: significantly decreased
  maximum number of intersections (Nmax): significantly reduced
[2]; ketanserin 100 μM, 15 min pre-treatment, all treatment groups
  normalised AUC of the Sholl plot: significantly reduced normalised AUC across all treatment groups
[2]; ketanserin pre-treatment
  neuronal structural complexity (normalised AUC): significantly reduced normalised AUC across all treatment groups

## CCN(CC)C(=O)[C@@H]1C=C2c3cccc4[nH]cc(c34)C[C@H]2N(C)C1 [LSD, Lysergic acid diethylamide]
[1]
  number of the top 10 dysregulated pathways corrected: 5 pathways
  top 10 cocaine-dysregulated biological pathways corrected: 50%
Hippocampal proteins
  differential expression of proteins in the control hippocampus: 73 proteins
  differential expression of proteins in the chronic cocaine hippocampus: 57 proteins
  reversal of chronic cocaine mediated proteomic changes in the hippocampus: 59%

## O=C(Nc1ccccc1C(=O)NC1CCCCNC1=O)c1cc2ccccc2s1 (stereo not drawn) [ANA-12]
[2]; ANA-12 10 μM pre-treatment, 5-MeO-DMT-induced increase
  average neurite length: blocked
[2]; ANA-12 10 μM, 15 min pre-treatment before 5-MeO-DMT, cocaine or combination
  AUC of the Sholl plot: prevented the 5-Meo-, cocaine- or combination-induced increase in AUC
[2]; ANA-12 pre-treated combination group relative to vehicle pre-treated combination group
  maximum number of intersections (Nmax): significantly reduced
[2]; control+ANA-12 vs control+vehicle (basal complexity)
  AUC of the Sholl plot: no difference in AUC
[2]; ANA-12 pre-treatment
  neuronal structural complexity (normalised AUC): prevented the 5-Meo-, cocaine- or combination-induced increase in complexity

## COc1cc(CC(C)N)c(OC)cc1I (stereo not drawn) [DOI, 2,5-Dimethoxy-4-iodoamphetamine]
Hippocampal proteins
  differential expression of proteins in the control hippocampus: 79 proteins
  differential expression of proteins in the chronic cocaine hippocampus: 55 proteins
  reversal of chronic cocaine mediated proteomic changes in the hippocampus: 70%

Source: patent US20240299353A1, “COMPOSITIONS AND METHODS FOR TREATING […] 5-MEO-DMT” (Alvarius Pharmaceuticals Ltd., priority 2021, published 2024)
